Assay results as given in article PMC7170299, “Design, synthesis, molecular modelling and biological evaluation of novel 3-(2-naphthyl)-1-phenyl-1H-pyrazole derivatives as potent antioxidants and 15-Lipoxygenase inhibitors” (Journal of Enzyme Inhibition and Medicinal Chemistry, 2020).

Experiments:
[1] = tested on: glutathione (GSH) in liver; experiment: In vivo reduced glutathione (GSH) level in liver homogenate; set-up: species or system male Wistar albino rats; conditions: rat liver, 100 mg/kg orally for 3 days; for GSH: mean ± SEM, n = 6
Description: (§1) The complete progress of the experiment was conducted using male Wistar albino rats (200–250 g), delivered by the Institutional Breeding House, Egypt, reared and maintained in the animal house of the institution. The animals had free access to food and water ad libitum and maintained in a controlled environment under standard conditions of temperature and humidity with an alternating 12 h light and dark cycle for about a week for acclimatization. The protocol of the study was approved by the Animal Ethics Committee of the Faculty of Pharmacy, Helwan University (ethical code number: 05A2019; date: October 2019). The study was conducted in accordance with the EC, directive 86/609/EEC for animal experiments.
(§2) Rats are weighed at the beginning and at the end of experiment. Fifty-four male albino rats (n=6) were divided into nine different groups. Group I served as a control group and treated with the same volume vehicle only. Group II treated with 100 mg/kg of Ascorbic acid as standard antioxidant drug. Groups (III–IX) orally administered 100 mg/kg of compounds 3a, 4e, 5b, 5c, 6a, 6c, 6e, respectively, for 3 days. The animals were sacrificed by cervical dislocation 24 h after the last dose. Sacrificing is carried out at the same time of the day, to avoid the circadian variation in the level of tissue GSH[53]. Each liver was excised, weighed, rinsed in ice-cold normal saline and frozen for not more than 72 h await analysis of endogenous antioxidant status (GSH levels and CAT activity) and lipid peroxide concentrations. For performing biochemical assays, a 10% liver homogenate in 10 mM phosphate buffer was prepared using tissue homogeniser (Glas-Col®, Cat no.099C K6424, TERRE HAUTE, USA).
Levels of glutathione (GSH) in liver homogenates were assayed by the deproteinization of tissue homogenate. Then […] supernatant was mixed with di-potassium hydrogen phosphate buffer (pH 8) and 0.4% 5,5′-dithiobis-2-nitrobenzoic acid (Ellman’s reagent). The yellow-coloured substance formed was measured at 412 nm. The results were expressed as GSH mg/g tissue.

[2] = tested on: Catalase (CAT) activity in liver; experiment: In vivo catalase (CAT) activity in liver homogenate; set-up: species or system male Wistar albino rats; conditions: rat liver, 100 mg/kg orally for 3 days; for CAT: mean ± SEM, n = 6
Description: as §1, §2
Catalase activity in 10% liver homogenates was determined spectrophotometrically according to Sinha AK[54]. The decrease in absorbance at 240 nm due to H2O2 decomposition was measured and the results were expressed in U/mg tissue.

Soybean 15-LOX enzyme = biological target: T1, Soybean 15-LOX enzyme (Glycine max, UniProt P08170); experiment: In vitro lipoxygenase inhibition (Cayman lipoxygenase inhibitor screening assay kit); format: biochemical; conditions: for IC50: mean ± SEM of three experiments, substrate arachidonic acid; for 15-LOX inhibition potency relative to quercetin: folds that of quercetin
T1 construct: purchased Cayman Chemical 760700
T1 sequence (P08170 1-839): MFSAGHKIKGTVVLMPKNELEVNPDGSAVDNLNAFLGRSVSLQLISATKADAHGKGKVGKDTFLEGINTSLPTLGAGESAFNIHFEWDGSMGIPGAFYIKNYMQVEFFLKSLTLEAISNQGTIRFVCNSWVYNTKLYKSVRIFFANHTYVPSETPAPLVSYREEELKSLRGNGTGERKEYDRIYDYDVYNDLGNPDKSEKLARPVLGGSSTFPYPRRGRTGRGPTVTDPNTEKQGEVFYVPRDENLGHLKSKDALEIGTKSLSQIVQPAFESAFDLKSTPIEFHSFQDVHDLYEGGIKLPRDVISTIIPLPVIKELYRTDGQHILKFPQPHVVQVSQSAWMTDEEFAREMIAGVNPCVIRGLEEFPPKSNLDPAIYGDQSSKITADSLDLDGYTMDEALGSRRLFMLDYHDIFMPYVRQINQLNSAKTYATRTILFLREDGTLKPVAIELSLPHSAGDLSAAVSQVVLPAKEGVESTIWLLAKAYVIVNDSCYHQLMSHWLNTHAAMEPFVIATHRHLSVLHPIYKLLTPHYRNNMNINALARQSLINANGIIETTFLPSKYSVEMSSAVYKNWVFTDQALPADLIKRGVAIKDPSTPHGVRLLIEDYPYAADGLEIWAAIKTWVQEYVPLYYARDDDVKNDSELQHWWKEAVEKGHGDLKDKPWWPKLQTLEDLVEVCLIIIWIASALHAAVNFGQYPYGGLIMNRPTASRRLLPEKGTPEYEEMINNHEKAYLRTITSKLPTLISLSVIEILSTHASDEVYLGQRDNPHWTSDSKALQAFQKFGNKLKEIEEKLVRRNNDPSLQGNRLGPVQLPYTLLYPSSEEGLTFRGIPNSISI
Description: The assay was performed using Cayman’s lipoxygenase inhibitor screening assay kit (Catalog No. 760700, Cayman Chemical, USA) according to the manufacturer’s instructions. Briefly, 90 µL of 15-LOX was pipetted into a 96-well plate. Next, 10 µL of test compound at concentrations (2.5, 5.0 and 10 µM) dissolved in DMSO were added to each well. The reaction was initiated by adding 10 µL substrate (AA) and the plate was placed on a shaker for at least 5 minutes. Finally, 100 µL of chromogen (prepared according to manufacturer’s instructions) was added to each well to stop enzyme catalysis and develop the reaction. 100 µL of Assay buffer (0.1 M Tris-HCl, pH7.4) was used in blank wells. […] The absorbance of the solution was measured at λ 490–500 nm. The percentage inhibition was calculated according to the following equation: % inhibition =[(IA−Ainhibitor sample)/IA]×100 where (IA) is the 100% initial activity and (Ainhibitor sample) is the absorbance of the test sample. Dose–response curve was plotted between % inhibition and the drug concentration. The non-linear dose–response curve was used for calculating drug concentration showing 50% enzyme inhibition.

[3] = NO scavenging assay (sodium nitroprusside / Griess reagent); conditions: mean ± SEM of three experiments; 90 min, 546 nm
Description: The NO scavenging activity of all synthesized compounds was measured as previously described by Ho et al.[50] Briefly, 50 µL of different concentrations of the tested compounds (12.5, 25, 50,100, and 200 µg/mL) were pipetted into a 96-well plate. Then, 50 µL of 10-mM sodium nitroprussides dissolved in phosphate-buffered saline PBS (pH 7.4) were added to each well and the plate was incubated for 90 min at room temperature. Next, an equal volume of Griess reagent (1% of sulphanilamide and 0.1% of naphthyl ethylene diamine in 2.5% […]) was added to each well to measure the nitrite content. The absorbance of the formed pink-coloured chromophore was measured at λ 546 nm. DMSO and ascorbic acid were used as the negative and positive control, respectively. All tests were performed in triplicate. The percentage of NO scavenging activity was calculated according to the following equation: % of NO scavenging=[(Acontrol−Asample)/Acontrol]×100 where Acontrol is the absorbance of the control reaction (with all reagents except the test compound), and Asample is the absorbance of the test sample.

SMILES | melting point [°C] | IC50 (Soybean 15-LOX enzyme) [nM] | NO IC50 [3] [µg/mL] | 15-LOX inhibition potency relative to quercetin (Soybean 15-LOX enzyme) [folds] | GSH [1] [mg/g tissue] | CAT [2] [U/mg tissue] | Increase in GSH compared to control group [1] | Increase of CAT enzyme level compared to control group [2]
c1ccc(C2=NNC(c3cn(-c4ccccc4)nc3-c3ccc4ccccc4c3)C2)cc1 (stereo not shown) [Compound 3a, 3′-Naphthalen-2-yl-5,1′-diphenyl-3,4-dihydro-2H,1’H-[3,4′]bipyrazole] | 172 to 173 | 2230 ± 70 | 27.65 ± 1.53 | – | 7.00 ± 0.27 | 36.21 ± 3.49 | – | –
Clc1ccc(C2=NN(c3ccccc3)C(c3cn(-c4ccccc4)nc3-c3ccc4ccccc4c3)C2)cc1Cl (stereo not shown) [Compound 4e, 5-(3,4-Dichlorophenyl)-3′-naphthalen-2-yl-2,1′-diphenyl-3,4-dihydro-2H,1’H-[3,4′]-bipyrazole] | 172 to 173 | 3530 ± 70 | 57.01 ± 1.29 | – | 7.05 ± 0.56 | 43.48 ± 4.51 | – | –
COc1ccc(C2=NOC(c3cn(-c4ccccc4)nc3-c3ccc4ccccc4c3)C2)cc1 (stereo not shown) [Compound 5b, 3-(4-Methoxyphenyl)-5-(3-naphthalen-2-yl-1-phenyl-1H-pyrazol-4-yl)-4,5-dihydro isoxazole] | 197 to 198 | 4370 ± 90 | 75.53 ± 1.43 | – | 10.71 ± 0.86 | 48.19 ± 1.24 | about 52% | about 101%
Cc1ccc(C2=NOC(c3cn(-c4ccccc4)nc3-c3ccc4ccccc4c3)C2)cc1 (stereo not shown) [Compound 5c, 5-(3-Naphthalen-2-yl-1-phenyl-1H-pyrazol-4-yl)-3-p-tolyl-4,5-dihydroisoxazole] | 181 to 182 | 4230 ± 70 | 38.99 ± 1.31 | – | 10.92 ± 0.96 | 45.42 ± 4.30 | ~55% | ~89%
Cc1ccc(C2=NN(C(N)=S)C(c3cn(-c4ccccc4)nc3-c3ccc4ccccc4c3)C2)cc1 (stereo not shown) [Compound 6c, 3′-Naphthalen-2-yl-1′-phenyl-5-p-tolyl-3,4-dihydro-1’H-[3,4′]bipyrazolyl-2-carbo thioic acid amide] | 184 to 185 | 2100 ± 60 | 23.79 ± 0.83 | – | 9.01 ± 0.72 | 44.38 ± 2.81 | – | –

Now those with a lower IC50 (Soybean 15-LOX enzyme), led by results:

melting point [°C] | IC50 (Soybean 15-LOX enzyme) [nM] | NO IC50 [3] [µg/mL] | 15-LOX inhibition potency relative to quercetin (Soybean 15-LOX enzyme) [folds] | SMILES | GSH [1] [mg/g tissue] | CAT [2] [U/mg tissue] | Increase in GSH compared to control group [1] | Increase of CAT enzyme level compared to control group [2]
198 to 199 | 1500 ± 60 | 36.37 ± 0.75 | 2.2 | NC(=S)N1N=C(c2ccccc2)CC1c1cn(-c2ccccc2)nc1-c1ccc2ccccc2c1 (stereo not shown) [Compound 6a, 3′-Naphthalen-2-yl-5,1′-diphenyl-3,4-dihydro-1’H-[3,4′]bipyrazolyl-2-carbothioic acid amide] | 7.07 ± 0.35 | 27.97 ± 3.46 | – | –
180 to 181 | 1570 ± 30 | 71.39 ± 1.25 | 2.1 | NC(=S)N1N=C(c2ccc(Cl)c(Cl)c2)CC1c1cn(-c2ccccc2)nc1-c1ccc2ccccc2c1 (stereo not shown) [Compound 6e] | 10.65 ± 0.97 | 57.84 ± 3.50 | ~51% | ~141%
